Data published in ChEMBL document CHEMBL1201862, “PubChem BioAssay data set” (2004).
Activity calls are given as the source filed them.

Legend:
Cytochrome P450 2C19 = Cytochrome P450 2C19 (Homo sapiens, UniProt P33261); test: Cytochrome panel assay with activity outcomes. Panel member name: p450-cyp2c19 Compounds with AC50 equal or less than 10 uM are considered active; format: functional; details: read-out: AC50
Cytochrome P450 3A4 = Cytochrome P450 3A4 (Homo sapiens, UniProt P08684);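 note: CYP3A4 tested as one member of a cytochrome P450 panel screen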
Sequence of Cytochrome P450 3A4 (P08684 whole entry): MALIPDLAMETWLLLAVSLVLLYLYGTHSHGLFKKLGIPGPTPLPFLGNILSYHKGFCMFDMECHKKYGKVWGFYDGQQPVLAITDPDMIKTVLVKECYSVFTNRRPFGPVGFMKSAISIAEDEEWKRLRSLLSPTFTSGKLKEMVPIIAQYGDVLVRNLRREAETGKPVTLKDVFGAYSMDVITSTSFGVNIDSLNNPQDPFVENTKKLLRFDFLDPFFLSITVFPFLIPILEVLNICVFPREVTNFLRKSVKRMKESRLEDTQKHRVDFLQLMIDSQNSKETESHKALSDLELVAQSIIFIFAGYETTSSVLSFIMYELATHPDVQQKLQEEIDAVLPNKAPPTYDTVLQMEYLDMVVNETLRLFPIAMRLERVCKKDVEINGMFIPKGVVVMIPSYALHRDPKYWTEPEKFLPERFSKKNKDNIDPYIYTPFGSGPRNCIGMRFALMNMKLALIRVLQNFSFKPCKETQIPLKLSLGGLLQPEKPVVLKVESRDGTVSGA

Cytochrome P450 2C9 = Cytochrome P450 2C9 (Homo sapiens, UniProt P11712)
Sequence of Cytochrome P450 2C9 (P11712 whole entry): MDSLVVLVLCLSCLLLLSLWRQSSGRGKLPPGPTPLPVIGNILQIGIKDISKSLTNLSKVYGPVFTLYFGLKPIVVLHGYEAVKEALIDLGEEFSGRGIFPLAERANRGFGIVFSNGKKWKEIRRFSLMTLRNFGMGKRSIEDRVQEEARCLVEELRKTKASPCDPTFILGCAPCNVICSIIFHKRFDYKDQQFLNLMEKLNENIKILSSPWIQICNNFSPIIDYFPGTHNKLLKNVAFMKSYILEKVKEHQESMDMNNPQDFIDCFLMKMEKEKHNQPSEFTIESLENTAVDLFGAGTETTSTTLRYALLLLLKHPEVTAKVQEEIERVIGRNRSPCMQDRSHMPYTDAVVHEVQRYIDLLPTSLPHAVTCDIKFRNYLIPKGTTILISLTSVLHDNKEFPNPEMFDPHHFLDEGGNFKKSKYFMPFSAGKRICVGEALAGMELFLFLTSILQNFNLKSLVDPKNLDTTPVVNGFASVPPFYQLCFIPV

[1] = cytotoxicity in HEK-293T cells, dose response, cytotoxicity control for TCR NF-kB inhibitor project, luminescence, T-cell screen hits (AID 489026); format: functional, cell-based;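 note: cells exposed to compound about 14 hours before the viability readout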
[2] = growth suppression of beta-catenin-knockout colon cells, dose response, cell-based, HCT116, human colon tumor (AID 1045); format: functional;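 note: HCT116 colon tumor cells with beta catenin knocked out; cells exposed to compound for 60 hours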
[3] = growth suppression of PTEN-null colon cells, dose response, cell-based, HCT116 PTEN knockout (AID 1047); format: functional;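 note: HCT116 colon tumor cells with PTEN knocked out; cells exposed to compound for 60 hours before readout; potency for loss of cell viability measured by luminescence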
Paired box protein Pax-8 = Paired box protein Pax-8 (Homo sapiens, UniProt Q06710); test: inhibitors of PAX8-driven TPO luciferase reporter, dose response, RMG-I cells, cherry-pick (AID 687027); format: functional, cell-based;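 note: luciferase reporter driven by Pax8 target thyroperoxidase promoter measured by SteadyGlo luminescence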
Sequence of Paired box protein Pax-8 (Q06710 whole entry): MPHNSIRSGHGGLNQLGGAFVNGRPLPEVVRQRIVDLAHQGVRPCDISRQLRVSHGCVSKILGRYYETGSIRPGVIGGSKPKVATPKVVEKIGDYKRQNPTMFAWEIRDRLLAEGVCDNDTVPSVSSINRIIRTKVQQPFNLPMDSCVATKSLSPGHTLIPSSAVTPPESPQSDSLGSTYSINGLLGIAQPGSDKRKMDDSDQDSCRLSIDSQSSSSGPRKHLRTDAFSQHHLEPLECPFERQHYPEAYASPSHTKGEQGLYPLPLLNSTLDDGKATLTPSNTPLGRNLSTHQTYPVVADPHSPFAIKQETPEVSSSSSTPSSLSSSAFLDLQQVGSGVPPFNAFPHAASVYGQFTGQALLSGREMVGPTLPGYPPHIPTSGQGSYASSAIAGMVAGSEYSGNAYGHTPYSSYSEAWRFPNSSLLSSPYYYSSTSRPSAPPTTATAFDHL

Cytochrome P450 1A2 = target: T1, Cytochrome P450 1A2 (Homo sapiens, UniProt P05177);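 note: PubChem cytochrome P450 panel assay, CYP1A2 panel member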
T1 sequence (P05177 whole entry): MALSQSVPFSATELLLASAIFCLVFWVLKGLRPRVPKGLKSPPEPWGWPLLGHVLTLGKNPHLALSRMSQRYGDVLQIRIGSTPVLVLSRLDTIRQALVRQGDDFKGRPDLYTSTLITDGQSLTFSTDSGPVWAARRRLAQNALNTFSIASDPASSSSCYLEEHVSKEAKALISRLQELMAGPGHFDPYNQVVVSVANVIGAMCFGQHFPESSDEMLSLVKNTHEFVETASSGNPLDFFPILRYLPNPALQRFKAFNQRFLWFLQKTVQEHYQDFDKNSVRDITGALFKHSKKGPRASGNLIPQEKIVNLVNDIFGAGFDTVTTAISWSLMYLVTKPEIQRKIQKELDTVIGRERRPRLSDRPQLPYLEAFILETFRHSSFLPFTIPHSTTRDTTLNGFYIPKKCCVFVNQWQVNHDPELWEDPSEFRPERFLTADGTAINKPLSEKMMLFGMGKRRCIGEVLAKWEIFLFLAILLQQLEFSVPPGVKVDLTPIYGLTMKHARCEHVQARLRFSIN

[4] = target: FAD-linked sulfhydryl oxidase ALR (Homo sapiens, UniProt P55789); test: inhibitors of human ALR sulfhydryl oxidase, dose response, biochemical, H2O2 detection, luminescence, cherry-pick (AID 493248)
Sequence of FAD-linked sulfhydryl oxidase ALR (P55789 whole entry): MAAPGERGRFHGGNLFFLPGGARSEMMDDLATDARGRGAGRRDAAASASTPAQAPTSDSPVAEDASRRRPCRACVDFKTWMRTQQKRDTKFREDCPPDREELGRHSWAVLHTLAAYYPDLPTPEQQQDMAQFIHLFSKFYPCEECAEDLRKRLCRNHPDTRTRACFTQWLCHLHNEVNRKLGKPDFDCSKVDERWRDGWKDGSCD

Cytochrome P450 2D6 = Cytochrome P450 2D6 (Homo sapiens, UniProt P10635);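 note: CYP2D6 member of a cytochrome P450 panel assay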
Sequence of Cytochrome P450 2D6 (P10635 whole entry): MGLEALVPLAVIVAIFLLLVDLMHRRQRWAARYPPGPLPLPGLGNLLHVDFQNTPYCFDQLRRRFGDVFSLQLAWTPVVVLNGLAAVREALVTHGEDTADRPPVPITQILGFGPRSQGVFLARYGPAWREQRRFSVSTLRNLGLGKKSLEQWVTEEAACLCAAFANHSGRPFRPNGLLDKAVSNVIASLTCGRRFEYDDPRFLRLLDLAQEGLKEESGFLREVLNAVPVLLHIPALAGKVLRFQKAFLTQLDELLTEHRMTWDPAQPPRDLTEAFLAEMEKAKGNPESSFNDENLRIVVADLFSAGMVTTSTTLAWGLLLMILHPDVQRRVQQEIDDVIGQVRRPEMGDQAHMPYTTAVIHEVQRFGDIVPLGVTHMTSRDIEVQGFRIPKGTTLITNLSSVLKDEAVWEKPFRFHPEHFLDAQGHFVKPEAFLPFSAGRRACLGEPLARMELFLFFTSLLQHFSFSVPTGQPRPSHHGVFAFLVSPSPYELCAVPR

[5] = target: T2, Calpain-2 catalytic subunit (Sus scrofa, UniProt P43367); test: pig calpain II inhibitor potency, dose response, biochemical, fluorogenic peptide substrate (AID 1420); format: functional
T2 sequence (P43367 whole entry): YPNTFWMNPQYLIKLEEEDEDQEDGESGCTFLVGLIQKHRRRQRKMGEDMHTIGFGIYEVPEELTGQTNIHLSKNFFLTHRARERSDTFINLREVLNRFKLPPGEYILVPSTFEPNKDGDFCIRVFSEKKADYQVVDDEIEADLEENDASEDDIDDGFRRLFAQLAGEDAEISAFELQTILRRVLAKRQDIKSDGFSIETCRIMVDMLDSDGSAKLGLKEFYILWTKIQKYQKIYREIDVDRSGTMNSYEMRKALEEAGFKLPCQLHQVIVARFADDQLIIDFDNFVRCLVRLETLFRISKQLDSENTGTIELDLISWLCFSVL

[6] = inhibitors of SNCA 5'UTR-driven reporter translation, confirmation, H4 neuroglioma cells, luminescence (AID 1988); format: functional, cell-based
[7] = inhibitors of firefly luciferase expression or activity, dose response, H4 neuroglioma cells, luminescence (AID 1990); format: functional, cell-based
[8] = Luminescence Cell-Based Dose Response HTS to Identify Inhibitors of 5'UTR Stem-Loop Driven Prion Protein mRNA Translation in H4 Neuroglioblastoma Cells. [Related pubchem assays: 1827 (Project Summary), 1813 (Primary HTS)]; format: functional
[9] = target: T3, Mannose-6-phosphate isomerase (Homo sapiens, UniProt P34949); test: human PMI inhibitors, high substrate, primary screen, biochemical, fluorescence intensity, high mannose 6-phosphate (AID 1220)
T3 sequence (P34949 whole entry): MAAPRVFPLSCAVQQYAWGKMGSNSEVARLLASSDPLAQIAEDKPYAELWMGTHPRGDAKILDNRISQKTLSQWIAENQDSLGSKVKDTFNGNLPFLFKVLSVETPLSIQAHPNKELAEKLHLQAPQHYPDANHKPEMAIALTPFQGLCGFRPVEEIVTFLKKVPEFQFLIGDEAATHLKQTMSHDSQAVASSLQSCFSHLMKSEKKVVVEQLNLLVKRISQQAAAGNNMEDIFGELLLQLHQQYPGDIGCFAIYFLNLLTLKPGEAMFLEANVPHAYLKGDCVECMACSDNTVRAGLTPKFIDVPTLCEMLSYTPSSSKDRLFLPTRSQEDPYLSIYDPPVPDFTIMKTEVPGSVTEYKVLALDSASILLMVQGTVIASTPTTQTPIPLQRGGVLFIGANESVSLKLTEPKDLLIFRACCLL

INS1 = test: beta cell apoptosis inhibitors, cytokine rescue, dose response, luminescence, retest (AID 449756); format: functional, cell-based; details: Rattus norvegicus, INS1;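 note: cell death triggered by IL-1 beta plus TNF-alpha plus IFN-gamma mixture; protective hits raise ATP signal compared with cytokine alone wells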
[10] = target: T4, Corticotropin-releasing factor receptor 2/Corticotropin-releasing factor-binding protein (Homo sapiens, UniProt P24387+Q13324); test: activators of CRF receptor 2 with binding protein – uHTS hits, confirmation (AID 602473); format: functional; details: read-out: EC50_Mean
T4 sequence (Q13324 whole entry): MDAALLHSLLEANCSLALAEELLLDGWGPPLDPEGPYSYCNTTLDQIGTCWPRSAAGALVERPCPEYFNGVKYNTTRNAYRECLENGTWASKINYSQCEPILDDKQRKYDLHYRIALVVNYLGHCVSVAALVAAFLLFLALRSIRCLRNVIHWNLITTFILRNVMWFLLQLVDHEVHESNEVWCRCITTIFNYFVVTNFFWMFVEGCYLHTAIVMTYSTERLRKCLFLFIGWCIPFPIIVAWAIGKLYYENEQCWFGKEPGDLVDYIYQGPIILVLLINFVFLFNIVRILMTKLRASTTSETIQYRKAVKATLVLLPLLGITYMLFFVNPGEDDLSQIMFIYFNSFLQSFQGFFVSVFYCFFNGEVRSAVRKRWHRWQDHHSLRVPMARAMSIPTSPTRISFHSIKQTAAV
T4 sequence (P24387 whole entry): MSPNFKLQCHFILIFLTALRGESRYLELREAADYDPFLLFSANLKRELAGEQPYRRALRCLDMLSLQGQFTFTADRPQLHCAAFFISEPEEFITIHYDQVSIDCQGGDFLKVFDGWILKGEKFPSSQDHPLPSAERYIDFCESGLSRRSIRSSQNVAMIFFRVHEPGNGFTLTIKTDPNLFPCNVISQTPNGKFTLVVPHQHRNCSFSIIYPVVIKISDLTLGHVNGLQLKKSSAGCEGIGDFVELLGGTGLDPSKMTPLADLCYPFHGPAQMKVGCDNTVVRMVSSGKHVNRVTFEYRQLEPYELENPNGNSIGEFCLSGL

[11] = target: T4, Corticotropin-releasing factor receptor 2/Corticotropin-releasing factor-binding protein; test: Dose Response confirmation of uHTS hits for small molecule antagonists of the CRF-binding protein and CRF-R2 receptor complex.; format: functional; details: read-out: IC50_Mean
[12] = target: T5, Rac GTPase-activating protein 1 (Homo sapiens, UniProt Q9H0H5); test: MgcRacGAP GTPase-activating activity inhibitors, confirmation, biochemical, ADP Hunter fluorescence, primary and confirmatory (AID 624330); format: functional
T5 sequence (Q9H0H5 whole entry): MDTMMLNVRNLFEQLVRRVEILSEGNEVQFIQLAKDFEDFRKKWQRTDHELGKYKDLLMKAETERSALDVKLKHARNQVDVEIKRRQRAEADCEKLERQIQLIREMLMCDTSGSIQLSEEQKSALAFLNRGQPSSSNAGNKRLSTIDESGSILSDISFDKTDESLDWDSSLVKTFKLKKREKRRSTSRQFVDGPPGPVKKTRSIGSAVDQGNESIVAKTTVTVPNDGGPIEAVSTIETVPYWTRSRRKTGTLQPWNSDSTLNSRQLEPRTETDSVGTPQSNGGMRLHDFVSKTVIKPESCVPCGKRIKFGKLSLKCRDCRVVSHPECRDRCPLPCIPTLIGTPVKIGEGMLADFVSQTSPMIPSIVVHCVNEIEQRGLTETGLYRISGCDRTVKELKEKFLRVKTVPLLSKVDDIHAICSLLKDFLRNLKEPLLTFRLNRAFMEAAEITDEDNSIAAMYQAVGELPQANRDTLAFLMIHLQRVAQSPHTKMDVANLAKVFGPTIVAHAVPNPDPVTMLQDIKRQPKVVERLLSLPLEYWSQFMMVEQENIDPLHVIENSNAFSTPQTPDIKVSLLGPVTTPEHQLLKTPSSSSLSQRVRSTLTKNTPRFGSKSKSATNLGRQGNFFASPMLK

[13] = target: Luciferin 4-monooxygenase (Photinus pyralis, UniProt P08659); test: firefly luciferase enzyme inhibitors, dose response, biochemical, luminescence (AID 1891)
Sequence of Luciferin 4-monooxygenase (P08659 whole entry): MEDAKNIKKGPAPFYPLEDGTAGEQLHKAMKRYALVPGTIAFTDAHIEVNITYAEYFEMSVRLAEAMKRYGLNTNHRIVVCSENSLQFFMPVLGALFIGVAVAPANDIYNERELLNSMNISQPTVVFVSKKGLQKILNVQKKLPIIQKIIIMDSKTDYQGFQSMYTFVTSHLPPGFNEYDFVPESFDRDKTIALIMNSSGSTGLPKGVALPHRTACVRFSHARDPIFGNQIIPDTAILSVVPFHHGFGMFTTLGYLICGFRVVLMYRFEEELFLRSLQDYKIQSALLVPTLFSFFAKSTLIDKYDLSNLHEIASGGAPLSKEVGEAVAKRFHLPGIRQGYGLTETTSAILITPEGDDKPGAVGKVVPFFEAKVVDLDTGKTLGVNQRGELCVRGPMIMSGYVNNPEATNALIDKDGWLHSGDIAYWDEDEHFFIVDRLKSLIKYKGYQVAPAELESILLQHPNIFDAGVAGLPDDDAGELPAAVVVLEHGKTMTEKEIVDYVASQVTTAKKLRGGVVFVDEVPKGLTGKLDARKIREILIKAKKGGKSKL

[14] = Luminescence Cell-Based Dose Confirmation HTS to Identify Inhibitors of Platelet Dense Granule Release. [Related pubchem assays: 1663 (Primary HTS), 1678 (Summary of Project)]; format: functional

Sequence of Cytochrome P450 2C19 (P33261 whole entry): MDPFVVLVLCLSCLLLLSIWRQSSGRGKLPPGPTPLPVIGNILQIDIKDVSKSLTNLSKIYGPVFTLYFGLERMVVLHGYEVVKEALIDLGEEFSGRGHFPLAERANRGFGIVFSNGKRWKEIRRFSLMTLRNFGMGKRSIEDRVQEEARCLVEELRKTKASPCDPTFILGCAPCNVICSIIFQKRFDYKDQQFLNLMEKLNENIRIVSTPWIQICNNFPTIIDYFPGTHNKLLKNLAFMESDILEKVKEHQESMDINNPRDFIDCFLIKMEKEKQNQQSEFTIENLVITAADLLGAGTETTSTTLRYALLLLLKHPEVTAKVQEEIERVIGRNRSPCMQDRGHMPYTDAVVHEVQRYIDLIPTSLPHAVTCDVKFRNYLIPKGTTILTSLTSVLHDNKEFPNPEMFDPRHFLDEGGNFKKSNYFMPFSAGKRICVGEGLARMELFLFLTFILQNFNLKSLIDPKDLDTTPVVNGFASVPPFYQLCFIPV

Cc1cccc(C(=O)ON=C(N)c2cccc([N+](=O)[O-])c2)c1
AC50 (Cytochrome P450 2C19): 7.08 µM (inconclusive) | AC50 (Cytochrome P450 3A4): 17.8 µM (inconclusive) | AC50 (Cytochrome P450 2C9): inconclusive

CCc1ccc(N2C(=O)C(Cl)=C(Nc3ccc(C(=O)N4CCCC4)cc3)C2=O)cc1
IC50 [1]: > 80 µM (inactive)

CCN1CCN(c2cc(C)c3cc(NC(=O)c4cncc(Br)c4)ccc3n2)CC1
EC50 [2]: 13.9 µM (active) | EC50 [3]: 16.2 µM (active)

CN(N=Nc1[nH]cnc1C(N)=O)C1CCCCC1
AC50 (Paired box protein Pax-8): 6.78 µM (active)

CCN(CC)c1ccc(/C=N/Nc2nc(C)cc(O)n2)cc1
AC50 (Cytochrome P450 1A2): 25.1 µM (inconclusive) | AC50 (Cytochrome P450 2C19): 22.4 µM (inconclusive) | AC50 (Cytochrome P450 2C9): inconclusive | AC50 [4]: 0.456 µM (active) | AC50 (Cytochrome P450 2D6): 12.6 µM (inconclusive)

Cc1ccc(C)c2sc(NC(=O)c3ccc(N4CCCCC4)c([N+](=O)[O-])c3)nc12
AC50 (Cytochrome P450 3A4): 3.98 µM (inconclusive) | AC50 (Cytochrome P450 2C9): inconclusive

NNC(=O)Cc1cccnc1
AC50 (Cytochrome P450 1A2): 0.631 µM (inconclusive) | AC50 (Cytochrome P450 2C9): inconclusive

C[S+]([O-])c1ccccc1-c1nc(-c2cccc(Cl)c2)no1 (centres undefined)
IC50 [5]: > 50 µM (not active)

CC(=O)N1CCN(S(=O)(=O)c2cccc(C(=O)Nc3ccccc3N3CCCC3)c2)CC1
AC50 [4]: 3.27 µM (active)

Cc1[nH]c2ccc(-c3nnc(S)n3C)cc2c1C
EC50 [6]: 14 µM (active) | EC50 [7]: 8.15 µM (active) | AC50 [4]: 0.664 µM (active) | EC50 [8]: 19.2 µM (active)

COC(=O)CNC(=O)c1sc2ncn(CC(=O)Nc3ccc(C)c(Cl)c3)c(=O)c2c1C
IC50 [5]: 1.82 µM (not active)

Oc1ccc(N2CCN(c3nnnn3-c3ccccc3)CC2)cc1
AC50 [4]: 1.9 µM (active)

COc1ccc(N2C(=O)CSC2c2ccccc2)cc1 (centres undefined)
AC50 [4]: 1.9 µM (active)

CN(C(=S)Nc1ccc(Oc2ccccc2)cc1)c1ccc(O)cc1
IC50 [9]: > 50 µM (not active)

CNc1nc(C)cc(C)c1S(=O)(=O)c1ccc(Cl)cc1
AC50 (Cytochrome P450 1A2): 28.2 µM (inconclusive) | AC50 (Cytochrome P450 2C9): inconclusive

Cc1ccc(NCCC(=O)c2cccc([N+](=O)[O-])c2)c(C)c1
IC50 [9]: > 50 µM (not active)

COc1ccccc1-c1cc(NCc2ccccc2)ncn1
AC50 (Cytochrome P450 2C9): inconclusive

CCSc1nnc(NC(=O)c2cccs2)s1
IC50 [5]: 15 µM (not active)

O=C(COc1ccc(F)cc1)NN1C(=O)CSC1=S
IC50 [5]: 1.42 µM (not active)

COc1cc(Cn2c(-c3nonc3N)nc3ccccc32)ccc1C
EC50 [6]: 7.81 µM (active) | EC50 [7]: 9.66 µM (inconclusive) | EC50 [8]: 10.3 µM (active) | IC50 [1]: > 80 µM (inactive)

COc1ccc(C(=O)N2CCN(c3ccc([N+](=O)[O-])c(NCCc4ccc(OC)c(OC)c4)c3)CC2)cc1
AC50 (INS1): 2.53 µM (active) | IC50 [1]: > 80 µM (inactive)

CCOc1cc(/C=N/n2cnnc2)ccc1OS(=O)(=O)c1ccccc1
IC50 [5]: > 50 µM (not active)

CCCCOc1ccc(C(=O)OC(C)CN(C)C)cc1 (centres undefined)
IC50 [5]: > 50 µM (not active)

COc1ccc2c(c1)-c1nc(/N=C/c3ccc(O)cc3)sc1CC2
EC50 [10]: > 53 µM (inactive) | IC50 [9]: > 50 µM (not active) | IC50 [11]: > 47.1 µM (inactive)

CCCCC(=O)N/N=C(\C)CC(=O)Nc1cc(Cl)ccc1OC
AC50 (Cytochrome P450 1A2): 12.6 µM (inconclusive) | AC50 (Cytochrome P450 2C9): inconclusive

Cc1cc(C)cc(C(=N)c2ccccc2Cc2cccc3ccccc23)c1
AC50 (Cytochrome P450 3A4): 2.51 µM (inconclusive) | AC50 (Cytochrome P450 2C9): inconclusive

CCOc1cc(CNc2ccc3[nH]c(O)nc3c2)ccc1OCC(=O)NC(C)(C)C
IC50 [12]: 60.2 µM (active) | EC50 [13]: > 112 µM (not active) | IC50 [9]: > 50 µM (not active) | EC50 [14]: 12 µM (active)

CCOC(=O)N1CCN(C(=O)c2ccc(NS(C)(=O)=O)cc2)CC1
IC50 [5]: > 50 µM (not active)

CC(C)Nc1ccc(C(CC(N)=O)NC(=O)Cc2ccc(Br)cc2)cc1[N+](=O)[O-] (centres undefined)
IC50 [1]: > 80 µM (inactive)

CCSc1nnc(NC(=O)c2cccc(S(=O)(=O)N(C)c3ccc(C)cc3)c2)s1
AC50 [4]: 1.12 µM (active)
